Values joined by “and” are separate entries in the source; they are usually repeats but may differ in a detail not shown here. Equal values may be shown once.
System: BDF1 mice, Adenocarcinoma 755 s.c., tumor weight T/C
Experiment: NCI In Vivo Anticancer Drug Screen. Data for tumor model Adenocarcinoma 755 (subcutaneous) in B6D2F1 (BDF1) mice
Conditions: endpoint: mean tumor weight, higher = larger tumour
Outline: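 In vivo antitumor screen on a transplantable tumor line. Result equals the measure in compound-treated animals divided by the same measure in vehicle controls.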

[1] = dose: 3.5 mg/kg/injection, schedule: Q01DX011 (ip), vehicle: carboxymethylcellulose (CMC)
[2] = dose: 7.0 mg/kg/injection, schedule: Q01DX011 (ip), vehicle: carboxymethylcellulose (CMC)
[3] = dose: 75.0 mg/kg/injection, schedule: Q01DX011 (ip), vehicle: methylcellulose (MC)

For CCCCN=NNc1nc[nH]c1C(N)=O, the T/C (dose: 16.0 mg/kg/injection, schedule: Q01DX011 (ip), vehicle: methylcellulose (MC)) was 124 % of control, the T/C (dose: 31.0 mg/kg/injection, schedule: Q01DX011 (ip), vehicle: methylcellulose (MC)) was 75 % of control and the T/C (dose: 62.0 mg/kg/injection, schedule: Q01DX011 (ip), vehicle: methylcellulose (MC)) was 79 % of control.

With O=NN(CCCl)C(=O)NCCCl the T/C (dose: 0.45 mg/kg/injection, schedule: Q01DX011 (ip), vehicle: carboxymethylcellulose (CMC)) was 63 % of control and 66 % of control and 75 % of control, the T/C (dose: 0.9 mg/kg/injection, schedule: Q01DX011 (ip), vehicle: carboxymethylcellulose (CMC)) was 90 % of control and 98 % of control and 86 % of control and the T/C (dose: 1.62 mg/kg/injection, schedule: Q01DX011 (ip), vehicle: saline) was 93 % of control and 99 % of control. For the same compound, the T/C (dose: 1.75 mg/kg/injection, schedule: Q01DX011 (ip), vehicle: carboxymethylcellulose (CMC)) was 47 % of control, the T/C (dose: 3.25 mg/kg/injection, schedule: Q01DX011 (ip), vehicle: saline) was 79 % of control and 84 % of control and the T/C [1] was 36 % of control and 40 % of control (2×). The T/C (dose: 6.5 mg/kg/injection, schedule: Q01DX011 (ip), vehicle: carboxymethylcellulose (CMC)) was 32 % of control and 34 % of control, the T/C (dose: 6.5 mg/kg/injection, schedule: Q01DX011 (ip), vehicle: saline) was 59 % of control and 78 % of control and the T/C [2] was 18 % of control (2×) and 40 % of control. The T/C (dose: 13.0 mg/kg/injection, schedule: Q01DX011 (ip), vehicle: carboxymethylcellulose (CMC)) was 13 % of control.

CCSc1nc(N)nc2c1ncn2C1OC(CO)C(O)C1O (stereo not drawn) was tested, and the T/C (dose: 9.3 mg/kg/injection, schedule: Q01DX011 (ip), vehicle: methylcellulose (MC)) was 55 % of control, the T/C (dose: 18.7 mg/kg/injection, schedule: Q01DX011 (ip), vehicle: methylcellulose (MC)) was 39 % of control and the T/C (dose: 37.5 mg/kg/injection, schedule: Q01DX011 (ip), vehicle: methylcellulose (MC)) was 3 % of control. For the same compound, the T/C [3] was 4 % of control.

With NNc1nncc2ccccc12 the T/C (dose: 37.5 mg/kg/injection, schedule: Q01DX011 (ip), vehicle: carboxymethylcellulose (CMC)) was 90 % of control and the T/C (dose: 75.0 mg/kg/injection, schedule: Q01DX011 (ip), vehicle: carboxymethylcellulose (CMC)) was 47 % of control.

[Cl][Pt+2]([Cl])([Cl])[Cl].[Na+].[S-]c1ncnc2nc[nH]c12.[S-]c1ncnc2nc[nH]c12 was tested, and the T/C (dose: 1.0 mg/kg/injection, schedule: Q01DX011 (ip), vehicle: carboxymethylcellulose (CMC)) was 90 % of control, the T/C (dose: 1.7 mg/kg/injection, schedule: Q01DX011 (ip), vehicle: carboxymethylcellulose (CMC)) was 101 % of control and the T/C (dose: 2.0 mg/kg/injection, schedule: Q01DX011 (ip), vehicle: carboxymethylcellulose (CMC)) was 43 % of control. The T/C [1] was 31 % of control, the T/C (dose: 4.0 mg/kg/injection, schedule: Q01DX011 (ip), vehicle: saline) was 5 % of control and the T/C [2] was 3 % of control and 6 % of control. The T/C (dose: 8.0 mg/kg/injection, schedule: Q01DX011 (ip), vehicle: saline) was 4 % of control, the T/C (dose: 10.0 mg/kg/injection, schedule: Q01DX011 (ip), vehicle: carboxymethylcellulose (CMC)) was 21 % of control and the T/C (dose: 14.0 mg/kg/injection, schedule: Q01DX011 (ip), vehicle: carboxymethylcellulose (CMC)) was 1 % of control and 2 % of control. The T/C (dose: 20.0 mg/kg/injection, schedule: Q01DX011 (ip), vehicle: carboxymethylcellulose (CMC)) was 1 % of control, the T/C (dose: 28.0 mg/kg/injection, schedule: Q01DX011 (ip), vehicle: carboxymethylcellulose (CMC)) was 5 % of control and the T/C (dose: 32.0 mg/kg/injection, schedule: Q01DX011 (ip), vehicle: saline) was 1 % of control. The T/C (dose: 43.8 mg/kg/injection, schedule: Q01DX011 (oral), vehicle: saline) was 96 % of control, the T/C (dose: 87.5 mg/kg/injection, schedule: Q01DX011 (oral), vehicle: saline) was 12 % of control and the T/C (dose: 175.0 mg/kg/injection, schedule: Q01DX011 (oral), vehicle: saline) was 7 % of control.

COc1cc([C@@H]2c3cc4c(cc3[C@H](O)[C@H]3COC(=O)[C@H]23)OCO4)cc(OC)c1OC was tested, and the T/C (dose: 0.13 mg/kg/injection, schedule: Q01DX011 (ip), vehicle: carboxymethylcellulose (CMC)) was 102 % of control, the T/C (dose: 0.27 mg/kg/injection, schedule: Q01DX011 (ip), vehicle: carboxymethylcellulose (CMC)) was 60 % of control and 80 % of control and the T/C (dose: 0.54 mg/kg/injection, schedule: Q01DX011 (ip), vehicle: carboxymethylcellulose (CMC)) was 109 % of control. For the same compound, the T/C (dose: 0.55 mg/kg/injection, schedule: Q01DX011 (ip), vehicle: carboxymethylcellulose (CMC)) was 76 % of control, the T/C (dose: 1.08 mg/kg/injection, schedule: Q01DX011 (ip), vehicle: carboxymethylcellulose (CMC)) was 120 % of control and the T/C (dose: 1.1 mg/kg/injection, schedule: Q01DX011 (ip), vehicle: carboxymethylcellulose (CMC)) was 117 % of control.

For Nc1nc(NCc2ccccc2)cc(=O)[nH]1, the T/C (dose: 55.0 mg/kg/injection, schedule: Q01DX011 (ip), vehicle: methylcellulose (MC)) was 66 % of control and the T/C (dose: 165.0 mg/kg/injection, schedule: Q01DX011 (ip), vehicle: methylcellulose (MC)) was 49 % of control.

In the case of COc1ccc(C[C@H](N)C(=O)NC2C(CO)OC(n3cnc4c(N(C)C)ncnc43)C2O)cc1 (stereo partly drawn), the T/C (dose: 9.94 mg/kg/injection, schedule: Q01DX011 (ip), vehicle: carboxymethylcellulose (CMC)) is reported as 104 % of control, the T/C (dose: 13.25 mg/kg/injection, schedule: Q01DX011 (ip), vehicle: carboxymethylcellulose (CMC)) is reported as 119 % of control and the T/C (dose: 17.06 mg/kg/injection, schedule: Q01DX011 (ip), vehicle: carboxymethylcellulose (CMC)) is reported as 73 % of control. For the same compound, the T/C (dose: 19.88 mg/kg/injection, schedule: Q01DX011 (ip), vehicle: carboxymethylcellulose (CMC)) was 174 % of control, the T/C (dose: 23.0 mg/kg/injection, schedule: Q01DX011 (ip), vehicle: carboxymethylcellulose (CMC)) was 67 % of control and the T/C (dose: 26.5 mg/kg/injection, schedule: Q01DX011 (ip), vehicle: carboxymethylcellulose (CMC)) was 70 % of control. The T/C (dose: 31.8 mg/kg/injection, schedule: Q01DX011 (ip), vehicle: carboxymethylcellulose (CMC)) was 47 % of control and 48 % of control, the T/C (dose: 34.13 mg/kg/injection, schedule: Q01DX011 (ip), vehicle: carboxymethylcellulose (CMC)) was 57 % of control and the T/C (dose: 45.0 mg/kg/injection, schedule: Q01DX011 (ip), vehicle: carboxymethylcellulose (CMC)) was 70 % of control. The T/C (dose: 68.25 mg/kg/injection, schedule: Q01DX011 (ip), vehicle: carboxymethylcellulose (CMC)) was 50 % of control, the T/C (dose: 79.5 mg/kg/injection, schedule: Q01DX011 (ip), vehicle: carboxymethylcellulose (CMC)) was 14 % of control and the T/C (dose: 90.0 mg/kg/injection, schedule: Q01DX011 (ip), vehicle: carboxymethylcellulose (CMC)) was 51 % of control.

CCN(CC)CCCC(C)Nc1c2ccc(Cl)cc2nc2ccc(OC)cc12 (stereo not drawn) was tested, and the T/C (dose: 25.0 mg/kg/injection, schedule: Q01DX011 (ip), vehicle: carboxymethylcellulose (CMC)) was 68 % of control, the T/C (dose: 50.0 mg/kg/injection, schedule: Q01DX011 (ip), vehicle: carboxymethylcellulose (CMC)) was 62 % of control and the T/C (dose: 100.0 mg/kg/injection, schedule: Q01DX011 (ip), vehicle: carboxymethylcellulose (CMC)) was 52 % of control.

With C[C@H]1C[C@@H]2[C@H](C(=O)C[C@@]3(C)[C@H]2CC[C@]3(O)C(=O)CO)[C@@]2(C)C=CC(=O)C=C12 the T/C (dose: 50.0 mg/kg/injection, schedule: Q01DX011 (sc), vehicle: steriod suspending solution) was 30 % of control and the T/C (dose: 100.0 mg/kg/injection, schedule: Q01DX011 (sc), vehicle: steriod suspending solution) was 23 % of control.

In the case of OC1C(O)C(O)C2(CO2)C(O)C1O (stereo not drawn), the T/C (dose: 300.0 mg/kg/injection, schedule: Q01DX011 (ip), vehicle: saline) is reported as 99 % of control.

For CN(C)c1ccc(/C=C/C2=[N+](C)c3ccccc3C2(C)C)cc1, the T/C (dose: 2.0 mg/kg/injection, schedule: Q01DX011 (ip), vehicle: other) was 81 % of control.

In the case of Ic1ncnc2c1ncn2C1CCCS1 (stereo not drawn), the T/C [3] is reported as 150 % of control and the T/C (dose: 225.0 mg/kg/injection, schedule: Q01DX011 (ip), vehicle: methylcellulose (MC)) is reported as 95 % of control.

With CSc1nc(N)nc2c1ncn2Cc1ccccc1 the T/C [3] was 74 % of control, the T/C (dose: 150.0 mg/kg/injection, schedule: Q01DX011 (ip), vehicle: methylcellulose (MC)) was 53 % of control and the T/C (dose: 300.0 mg/kg/injection, schedule: Q01DX011 (ip), vehicle: methylcellulose (MC)) was 64 % of control.

Cn1cnc2c(ncn2C2CC(O)C(CO)O2)c1=O (stereo not drawn) was tested, and the T/C (dose: 120.0 mg/kg/injection, schedule: Q01DX011 (ip), vehicle: saline) was 105 % of control and the T/C (dose: 240.0 mg/kg/injection, schedule: Q01DX011 (ip), vehicle: saline) was 98 % of control.

Reference: PubChem BioAssay AID180 (DTP/NCI, 2004)
